Values joined by “and” are separate entries in the source; they are usually repeats but may differ in a detail not shown here. Identical values can stand only once.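 Exposure lasted 48 hours, with cells grown in 96-well plates and compounds tested at five concentrations. At the GI50, growth is halved. The concentration for full growth arrest is given as TGI.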
Key:
Experiment in all cases: NCI tumour cell line growth inhibition, 48 h
[1] = tested on: CCRF-CEM leukemia
[2] = tested on: COLO 205 colon
[3] = tested on: IGROV1 ovarian
[4] = tested on: NCI-H226 lung
[5] = tested on: SF-539 CNS
[6] = tested on: SNB-75 CNS
[7] = tested on: SR leukemia
[8] = tested on: SW-620 colon
[9] = tested on: TK-10 renal
[10] = tested on: UACC-257 melanoma

SMILES	GI50 [1]	TGI [1]	GI50 [2]	TGI [2]	GI50 [3]	TGI [3]	GI50 [4]	TGI [4]	GI50 [5]	TGI [5]	GI50 [6]	TGI [6]	GI50 [7]	GI50 [8]	TGI [8]	GI50 [9]	TGI [9]	GI50 [10]	TGI [10]	TGI [7] [µM]
CC(C)c1cnn2c(NCc3ccccc3)cc(NC[C@H]3CCNC[C@@H]3O)nc12	0.31 µM and 0.672 µM	6.01 µM and 14.9 µM	0.179 µM and 0.21 µM	0.476 µM and 0.749 µM	0.252 µM and 0.279 µM	11 µM and 10.3 µM	0.766 µM and 0.725 µM	4.01 µM and 5.53 µM	0.292 µM and 0.436 µM	1.68 µM and 1.43 µM	0.515 µM and 1.32 µM	2.04 µM and 2.83 µM	0.0481 µM and 0.0623 µM	0.239 µM and 0.432 µM	10.4 µM and 11 µM	1.5 µM and 2.27 µM	10.4 µM and 10.9 µM	0.656 µM and 0.716 µM	4.78 µM and 5.18 µM	–
NS(=O)(=O)c1ccc(-n2nc3c(c2-c2ccc(Cl)cc2)Cc2ccccc2-3)cc1	2.96 µM	9.08 µM	22.8 µM	64.1 µM	2.58 µM	14.2 µM	16.8 µM	35.4 µM	17.5 µM	31.6 µM	14.6 µM	30.5 µM	5.82 µM	1.88 µM	4.48 µM	19.5 µM	35.6 µM	20.6 µM	39.5 µM	21.3
CN(CCCCCl)P(=O)(OCCS(=O)(=O)CC(NC(=O)CCC(N)C(=O)O)C(=O)NC(C(=O)O)c1ccccc1)OCC1OC(n2ccc(N)nc2=O)C(F)(F)C1O (stereo not drawn)	0.0897 µM	> 100 µM	0.912 µM	> 100 µM	0.0581 µM	25.9 µM	8.03 µM	> 93.3 µM	0.0338 µM	0.689 µM	0.825 µM	> 25.2 µM	0.303 µM	1.44 µM	> 100 µM	32.8 µM	> 100 µM	25 µM	> 100 µM	11
CC(=O)c1ccc2c(c1)C1C=CCC1[C@H](c1cc3c(cc1Br)OCO3)N2 (stereo partly drawn)	0.644 µM	2.77 µM	1.94 µM	5.71 µM	1.63 µM	> 64.9 µM	1.74 µM	> 32.6 µM	0.893 µM	2.37 µM	0.5 µM	7.55 µM	0.519 µM	0.448 µM	> 29.2 µM	2.04 µM	37.1 µM	5.34 µM	27 µM	6.15
COc1cc(F)c(F)c(Nc2ccc(I)cc2F)c1NS(=O)(=O)C1(C[C@H](O)CO)CC1	> 9.26 µM	> 10 µM	0.0234 µM	> 2.51 µM	0.223 µM	> 5.56 µM	> 3.42 µM	> 10 µM	> 6.57 µM	> 10 µM	2.62 µM	> 10 µM	6.56 µM	0.0591 µM	> 10 µM	0.135 µM	> 10 µM	0.0239 µM	0.2 µM	> 10
O=C(NOC[C@H](O)CO)c1ccc(F)c(F)c1Nc1ccc(I)cc1F	> 100 µM	> 100 µM	< 0.01 µM and 0.00143 µM	> 100 µM	–	> 100 µM	0.717 µM and 1.43 µM	> 100 µM	15.8 µM and > 10 µM	> 100 µM	17.8 µM and > 10 µM	> 100 µM	> 10 µM	< 0.01 µM and 0.00315 µM	> 100 µM	0.0314 µM and 0.0174 µM	86.2 µM and > 10 µM	< 0.01 µM and 0.00154 µM	< 0.01 µM and 0.00947 µM	> 100
O=C1c2ccccc2-[n+]2ccc3c([nH]c4ccccc43)c21	–	2.27 µM	–	0.498 µM	–	0.671 µM	–	3.08 µM	–	1.45 µM	–	1.93 µM	–	–	2.72 µM	–	2.72 µM	–	1.88 µM	0.846
CCOC(=O)C(Cc1c[nH]c2c(N(CCO)CCO)cccc12)(NC(C)=O)C(=O)OCC	59.4 µM and 190 µM	430 µM	330 µM	> 1000 µM	643 µM	> 1000 µM	439 µM	> 1000 µM	> 1000 µM	> 1000 µM	50.9 µM	249 µM	144 µM	431 µM	> 1000 µM	> 1000 µM	> 1000 µM	> 1000 µM	> 1000 µM	890
Cc1ccc(NC(=O)CCc2nc(N)nc(N)c2-c2ccccc2)cc1C	–	> 100 µM	–	> 100 µM	–	> 100 µM	–	> 100 µM	–	> 100 µM	–	> 100 µM	–	–	> 100 µM	–	> 100 µM	–	> 100 µM	> 100
O=c1/c(=C/c2ccccc2[N+](=O)[O-])sc2nc3ccccc3n12	–	22.7 µM	–	> 46.4 µM	–	> 46.4 µM	–	> 46.4 µM	–	37.9 µM	–	33.5 µM	–	–	55.6 µM	–	> 46.4 µM	–	> 46.4 µM	25
COc1ccc(NC(=O)CSC2=C(Nc3cccc(Br)c3)C(=O)N(Cc3ccccc3)C2=O)cc1Cl	1.72 µM	29.6 µM	> 100 µM	> 100 µM	30.7 µM	> 100 µM	> 100 µM	> 100 µM	> 100 µM	> 100 µM	> 100 µM	> 100 µM	3.02 µM	> 100 µM	> 100 µM	44.4 µM	> 100 µM	> 100 µM	> 100 µM	24.3
Nc1nonc1-c1nc2cnccc2n1C1CC1	7.99 µM	> 25 µM	4.52 µM	> 14.4 µM	8.76 µM	> 25 µM	0.739 µM	> 14.6 µM	2.54 µM	10.1 µM	3.02 µM	> 18.5 µM	3.81 µM	5.42 µM	> 25 µM	0.636 µM	> 20.3 µM	18.1 µM	> 25 µM	15
CN(C)CCNc1ccc(CO)c2sc3ccc(O)cc3c(=O)c12	–	21.3 µM	–	16.8 µM	–	16.4 µM	–	8.48 µM	–	6.9 µM	–	9.62 µM	–	–	10.5 µM	–	32.1 µM	–	15.7 µM	0.78
O=[N+]([O-])c1cc(Cl)c2[nH]c3c(Cl)cc([N+](=O)[O-])cc3c2c1	0.391 µM	24.1 µM	0.469 µM	1.99 µM	0.471 µM	> 100 µM	0.393 µM	> 100 µM	0.653 µM	> 92.2 µM	0.511 µM	9.35 µM	0.32 µM	0.576 µM	> 100 µM	0.356 µM	19.1 µM	0.159 µM	0.996 µM	> 100
